Assay results reported in patent EP0546475A1, “Biologically active pseurotin A and D, new metabolites from Aspergillus fumigatus, process for their preparation and their use as apomorphine antagonists” (HOECHST AKTIENGESELLSCHAFT, priority 1991, dated 1993).

Key:
[1] = system: durch Apomorphin verursachten Kletterns; assay: Inhibition of apomorphine-induced climbing in mice (apomorphine antagonism); type: in vivo, Mäusen; details: test substance given 30 min (i.p.) or 60 min (p.o.) before apomorphine, dose of test substance not given
Protocol: Test auf biologische Aktivität von Pseurotin A und D: • Die Wirkung der Verbindungen der Formel I und 11 als Apomorphin Antagonisten wird an Mäusen getestet. Hierzu wird zunächst Apomorphin als 1 %ige Lösung (Verdünnungsmittel: Tylose, z. B. Methocel, Hoechst AG, Frankfurt, Deutschland)) einmalig […] injiziert. Die Dosis ist so gewählt, daß sie bei 95 % der Mäuse für ca. 30 Minuten eine anhaltende Klettertätigkeit auslöst (1,5 mg Apomorphin/kg Maus; subcutane Injektion). Tiere, die noch vor der Apomorphingabe eine konstante Klettertätigkeit aufweisen, werden nicht im Test berücksichtigt. Pseurotin A und/oder D wird 30 bzw. 60 Min. vor Apomorphin appliziert (i.p. bzw. p.o.). Es wird viermal abgelesen: unmittelbar vor sowie 10,20 und 30 Min. nach Apomorphin-Injektion. Dabei wird das Kletterverhalten pro Maus beurteilt: • Testkriterium ist, ob eine Hemmung des durch Apomorphin verursachten Kletterns eintritt.

[2] = Stability in the solid state and in solution; type: physicochemical; details: for Stabilität im festen Zustand: solid state; for Stabilität in Lösungen: solutions, pH range between 3 and 8, in particular 5 and 7
Source text: Die Verbindungen der Formel 1 oder 11 ist im festen Zustand und in Lösungen im pH-Bereich zwischen 3 und 8, insbesondere 5 und 7, stabil und läßt sich damit in übliche galenische Zubereitungen einarbeiten.

[3] = Solubility in organic solvents; type: physicochemical; details: in CH2C12, CHCl3, Essigsäureethylester, Aceton, Ethanol und Isopropanol; isolated as amorphous solid
Source text: Die Pseurotine A und D wurden als amorpher Feststoff isoliert und sind z.B. löslich in CH2C12, CHCl3, Essigsäureethylester, Aceton, Ethanol und Isopropanol.

[4] = 10 min after apomorphine (1,5 mg Apomorphin/kg Maus), seen in the majority (Mehrzahl) of treated mice
[5] = 20 min after apomorphine (1,5 mg Apomorphin/kg Maus)

Structure (SMILES) | Kletterverhalten pro Maus (Hemmung des durch Apomorphin verursachten Kletterns) [1, 4] | Kletterverhalten pro Maus (Hemmung des durch Apomorphin verursachten Kletterns) [1, 5] | Stabilität im festen Zustand [2] | Stabilität in Lösungen [2] | Löslichkeit [3]
CC/C=C\[C@H](O)[C@H](O)C1=C(C)C(=O)[C@]2(O1)C(=O)N[C@@](OC)(C(=O)c1ccccc1)[C@@H]2O [Pseurotin A] | nur noch 1 oder 2 Pfoten an der Wand | nahezu alle Tiere deutliche Symptome in Form der Kletterhemmung (4 Pfoten am Boden) | stabil | stabil | löslich
CCC(O)C=C[C@H](O)C1=C(C)C(=O)[C@]2(O1)C(=O)N[C@@](OC)(C(=O)c1ccccc1)[C@@H]2O (stereo partly shown) [Pseurotin D] | nur noch 1 oder 2 Pfoten an der Wand | nahezu alle Tiere deutliche Symptome in Form der Kletterhemmung (4 Pfoten am Boden) | stabil | stabil | löslich
